Measured values taken from US9265736B2, “Treatment of cardiovascular disease and thrombosis” (THE CLEVELAND CLINIC FOUNDATION, priority 2011, dated 2016).
Entries after “also recorded” stand apart in the source; their conditions may differ.

How the values were obtained:
peritoneal macrophages [1] = experiment: Macrophage cholesterol accumulation in mice on supplemented chow (Example 1); assay type: in vivo, C57BL/6J.Apoe−/− mice; settings: normal chow supplemented with choline (1.0%), TMAO (0.12%) or DMB (1.0%) vs normal chow
Experimental: Male C57BL/6J.Apoe−/− mice (15 week old) were placed on normal chow (control) alone or supplemented in the presence of either choline (1.0%), TMAO (0.12%), or DMB (1.0%). Peritoneal macrophages were recovered from the indicated number of mice at 20 weeks of age and cellular cholesterol content was quantified by stable isotope dilution GC/MS, and normalized to DNA content. (b) Schematic illustration of overall pathway.
(§1) Experiments were conducted during development of embodiments of the present invention to examine the structural specificity of phaophatidylcholine metabolites in promoting a pro-atherogenic macrophage phenotype as monitored by endogenous foam cell formation. C57BL/6J.Apoe−/− mice at time of weaning were placed on either normal chow diet (control) or normal chow supplemented with either choline, TMAO or the choline analog DMB, where the quaternary amine nitrogen of choline is replaced with a carbon (SEE FIG. 2, right). Thus, DMB is structurally identical to choline except there is no C—N bond for potential cleavage and TMA formation by gut flora.

[2] = Plasma TMAO in mice on supplemented chow (Example 1); assay type: in vivo, C57BL/6J.Apoe−/− mice; settings: normal chow supplemented with choline, TMAO or DMB vs normal chow
Experimental: as §1

[3] = test system: C57BL/6J.Apoe−/− male mice; experiment: Aortic root lesion / atherosclerotic plaque, oil red O staining (Example 2); assay type: in vivo
Excerpt: C57BL/6J.Apoe−/− male mice at the time of weaning (4 weeks) were placed on chow diet supplemented with 1.3% choline, 1.3% DMB, both, or neither. Aortic root section was stained with oil red 0/hematoxin. The red oil staining area inside the aorta indicates lesion plaque (SEE FIGS. 3 and 4).

[4] = Plasma lipoprotein profile (Example 3); assay type: in vivo, mice; settings: 1.3% DMB added to mouse diet
Experimental: Experiments were conducted during development of embodiments of the present invention to compare plasma levels of (1) cholesterol, (2) triglyceride, low density lipoprotein-cholesterol, and HDL cholesterol in mice fed chow, or chow supplemented with 1.3% choline, 1.3% DMB, or both (SEE FIG. 5).

Peritoneal macrophages [5] = experiment: Cholesterol accumulation and foam cell formation, oil red O staining of peritoneal macrophages (Example 4); assay type: in vivo, C57BL/6J.Apoe−/− male mice; settings: chow with 1.3% choline and 1.3% DMB
Experimental: Experiments were conducted during development of embodiments of the present invention to examine the effect of addition of DMB on cholesterol accumulation and foam cell formation. C57BL/6J.Apoe−/− male mice at the time of weaning (4 weeks) were placed on chow diet supplemented with 1.3% choline, 1.3% DMB, both, or neither. Peritoneal macrophages were collected, fixed in 4% paraformaldehyde and stained with oil red 0/hematoxin. Addition of DMB reversed the high choline diet induced cholesterol accumulation and foam cell formation (SEE FIG. 6).

[6] = test system: peritoneal mouse macrophages; experiment: Total cholesterol in peritoneal macrophages by stable isotope dilution LC/MS/MS (Example 5); assay type: in vivo, C57BL/6J.Apoe−/− male mice; settings: chow with 1.3% choline and 1.3% DMB
Experimental: Experiments were conducted during development of embodiments of the present invention to determine the effect of DMB on total cholesterol level in peritoneal mouse macrophages (SEE FIG. 7). C57BL/6J.Apoe−/− male mice at the time of weaning (4 weeks) were placed on chow diet supplemented with 1.3% choline, 1.3% DMB, both, or neither. The total cholesterol of cells was quantified by stable isotope dilution LC/MS/MS. Cells number was quantified by protein content in cell lysates.

intestinal microflora = experiment: Intestinal microflora-catalyzed generation of trimethylamine from choline, cecum homogenate (Example 6); assay type: biochemical; settings: D9-choline substrate, mouse cecum homogenate
Experimental: Experiments were conducted during development of embodiments of the present invention to examine the effect of DMB on intestinal microflora-catalyzed generation of trimethylamine from choline. Mouse celum was homogenized as a source of intestinal microflora. D9-choline was used as a substrate and the generation of […] was quantificed by stable isotope dilution LC/MS/MS.

[7] = Plasma TMA and TMAO by stable isotope dilution LC/MS/MS in mice on diets (Example 7); assay type: in vivo
Experimental: Six week old female mice were placed on the indicated diets +/− shown in FIG. 9, including Chow, CHOW+ antibiotics (ABS; which was 0.5 g/L vancomycin, 1 g/L neomycin sulfate, 1 g/L metronidazole, and 1 g/L ampicillin), TMAO, CH (chow supplemented with 1.0% wt/wt choline), CH and ABS, and CH+DMB. Mice were placed on these diets at 6 weeks of age and maintained on the diets for 3 weeks. Plasma was then recovered and both TMA and TMAO were determined by stable isotope dilution LC/MS/MS. Note that a diet rich in choline (similar to a Western diet) leads to increases in plasma TMA and TMAO levels.
In this example, mice were placed on either normal chow diet at time of weaning, or a high choline diet. After several weeks, whole blood was removed, and platelets isolated. The ability of a submaximal agonist of platelets, ADP, to trigger platelet aggregation was then determined. In parallel, plasma levels of TMAO were determined by established stable isotope dilution LC/MS/MS analyses. […] This is a clear signal of a pro-thrombotic phenotype in the mice on a high choline diet. In a similar study, the mice on the high choline were also placed on a cocktail of broad spectrum antibiotics (described above and in Wang et al., Nature 2011, April, 472(7341):57-63, incorporated by reference it its entirety for all purposes) to suppress intestinal microflora, and reduce plasma TMAO levels. […] Such drugs (e.g., DMB or antibiotics) are attractive since they should not induce excess bleeding (e.g., like commercial anti-thrombotic drugs like clopidogrel or Warfarin). That is, TMAO only accentuates platelet function, and reducing TMAO levels (like with DMB, antibiotic, or some other drug or approach, be it functional food, probiotic, or prebiotic) would decrease in vivo thrombosis, but not reduce below “normal” function, and thus not increase bleeding risk.

platelets = experiment: Ex vivo platelet aggregation triggered by ADP (Example 7); assay type: in vivo, mice
Experimental: In this example, mice were placed on either normal chow diet at time of weaning, or a high choline diet. After several weeks, whole blood was removed, and platelets isolated. The ability of a submaximal agonist of platelets, ADP, to trigger platelet aggregation was then determined. In parallel, plasma levels of TMAO were determined by established stable isotope dilution LC/MS/MS analyses. […] This is a clear signal of a pro-thrombotic phenotype in the mice on a high choline diet. In a similar study, the mice on the high choline were also placed on a cocktail of broad spectrum antibiotics (described above and in Wang et al., Nature 2011, April, 472(7341):57-63, incorporated by reference it its entirety for all purposes) to suppress intestinal microflora, and reduce plasma TMAO levels. […] Such drugs (e.g., DMB or antibiotics) are attractive since they should not induce excess bleeding (e.g., like commercial anti-thrombotic drugs like clopidogrel or Warfarin). That is, TMAO only accentuates platelet function, and reducing TMAO levels (like with DMB, antibiotic, or some other drug or approach, be it functional food, probiotic, or prebiotic) would decrease in vivo thrombosis, but not reduce below “normal” function, and thus not increase bleeding risk. […]

wild-type mice = experiment: Carotid artery in vivo thrombosis rate by vital microscopy, wild-type mice
Experimental: This example repeats the study immediately above, excepts uses wild-type mice. The results are shown FIG. 14.
Carotid artery in vivo thrombosis rates were determined using vital microscopy on the indicated groups of mice shown in FIG. 15. Mice were on the indicated diets +/− ABS or DMB for 3 weeks.

ApoE−/− mice = experiment: Carotid artery in vivo thrombosis rate by vital microscopy, ApoE−/− mice; settings: diet high in choline or supplemented with TMAO, 3 weeks
Experimental: In this example, carotid artery in vivo thrombosis rates were determined using vital microscopy on the indicated groups of mice in FIG. 13. Mice were on the indicated diets +/− ABS for 3 weeks.
These studies extend to in vivo studies what was seen before with ex vivo platelet aggregation studies from mice on the various indicated diets. […] A shorter time indicates faster platelet aggregation (enhanced in vivo thrombosis).

[8] = female mice, diets for 3 weeks, ABS or DMB added (high choline diet)

SMILES	macrophage cholesterol content (peritoneal macrophages [1])	plasma levels of TMAO [2]	reduction of aortic plaque formation ([3]; 1.3% DMB added to normal chow diet, from weaning (4 weeks)) [%]	increases in atherosclerotic plaque induced by the high choline diet ([3]; chow supplemented with 1.3% choline and 1.3% DMB)	plasma HDL cholesterol [4]	plasma low density lipoprotein-cholesterol [4]	plasma total cholesterol [4]	plasma triglyceride [4]	high choline diet induced cholesterol accumulation and foam cell formation (Peritoneal macrophages [5])	high choline diet induced increase in macrophage cholesterol content [6]	gut flora-mediated catabolism of choline to TMA (intestinal microflora)	diet induced TMAO levels ([7]; WT thrombosis study, high choline diet plus ABS or DMB, 3 weeks)	plasma TMA formation [7, 8]	plasma TMAO formation [7, 8]	plasma TMAO formation ([7]; platelet study, high choline diet plus antibiotics or DMB)	choline diet induced platelet hyperresponsiveness (aggregation) (platelets; high choline diet plus antibiotics or DMB)	change in in vivo thrombosis rates seen on a high choline diet (wild-type mice; WT mice, high choline diet plus ABS or DMB, 3 weeks)	platelet aggregation responses to ADP (platelets; diet supplemented with choline or TMAO vs normal chow)	in vivo thrombosis rates (time to cessation of blood flow in the carotid artery) (ApoE−/− mice)	in vivo thrombosis rates (wild-type mice; wild-type mice, absence of dyslipidemia)
CC(C)(C)CCO [DMB, 3,3-dimethyl-1-butanol]	no increased accumulation	no TMAO increase	~90	blocks the diet-induced enhanced atherosclerosis	increase	significant reductions	significant reductions	significant reductions	reversed	blocked	markedly inhibited	block TMAO levels	inhibits	inhibits	inhibits TMAO formation	markedly reduces platelet hyperresponsiveness; also recorded: blocks platelet hyper-responsiveness	block the reduction in in vivo thrombosis rates seen on a high choline diet	–	–	–
C[N+](C)(C)[O-] [TMAO, trimethylamine N-oxide, reference compound]	increased	elevated	–	–	–	–	–	–	–	–	–	–	–	–	–	–	–	promotes enhanced platelet aggregation	promotes accelerated in vivo thrombosis rates	enhances in vivo thrombosis rates
